Data taken from US20230346808A1, “CANNABINOID FORMULATIONS AND METHODS OF USE” (PreveCeutical Medical Inc., priority 2020, published 2023).
Values joined by “and” are separate entries in the source; they are usually repeats but may differ in a detail not shown here. Equal entries are not always repeated.

Legend:
[1] = test system: explanted nasal mucosal tissue; experiment: Ex vivo deposition into nasal mucosa, vertical Franz-diffusion apparatus; type: in vitro ADME, human; settings: for Deposition of key cannabinoids in µg/g of nasal tissue, Decarboxylated (average of batches D19 & D23): 300 µL decarboxylated sol-gel; for Deposition of key cannabinoids in µg/g of nasal tissue, Decarboxylated (average of batches D19 & D23) / Deposition of key cannabinoids in µg/g of nasal tissue, Native (average of batches N22 & 23): 8 hours post-application, 34° C.; for Deposition of key cannabinoids in µg/g of nasal tissue, Native (average of batches N22 & 23): 300 µL native sol-gel
Experimental: Ex vivo permeation studies were carried out using vertical Franz-diffusion apparatus equipped with temperature-controlled jackets set at 34° C. ± 1° C. Nasal mucosa was taken from middle-turbinate of patients undertaking surgery at Greenslopes Private Hospital. Mucosal tissue was cleaned of blood and bone, then immersed in phosphate-buffered saline (PBS; pH 7.4) at room temperature. The prepared nasal membrane was then sandwiched between donor and receptor cells with the dorsal side of the tissue facing the donor compartment and the ventral side facing the receiver compartment. The receptor cells were filled with 12 mL of PBS and then 300 µL of native or decarboxylated sol-gel samples placed in the donor compartment, ensuring that formulations spread over the entire tissue. To prevent evaporation of the samples, donor cells were covered with Parafilm®. Samples from the receptor cell were taken and volume replaced with PBS at 0, 1, 2, 4, 6 and 8-hours following sol-gel application. Collected tissue samples were then rinsed with MilliQ water after 8 hours, blotted dry with filter paper, wrapped with aluminium foil to protect from light and stored at -80° C. until required for further analysis.
On the day of analysis, the tissue samples were allowed to thaw and were blotted dry using filter paper, cut into small pieces, frozen with liquid nitrogen and ground with a mortar and pestle. Cannabis was extracted from the powdered tissue with ethanol (1 mL) and gently agitated for 12 hours at room temperature. Samples were then transferred to Eppendorf tubes and centrifuged at 10000 rpm for 10 minutes. The supernatant was collected and 100 µL of acetonitrile added to each tube then supernatant collected and again 100 µL was added and stored at -20° C. overnight. The following day each sample was allowed to thaw and centrifuged at 10000 rpm for 10 minutes with supernatant collected and prepared for quantitative analysis using the HPLC method described above in Example 5. Samples of Cannabis sol-gels from native (N22 and N23) and decarboxylated (D19 and D23) extracts were used in this study.
The tissue deposition of cannabinoids was measured per gram of nasal mucosa, with studies based on tissue availability from patients undergoing sinus surgery, and key cannabinoids detected presented in Table 8. The data shown is an average of the 2 native or 2 decarboxylated batches. The amount of sol-gel administered (300 µL) accounts for 3000 µg of cannabinoid content which is a surplus amount (based on micelles, this approximately correlates to the following: for native sol-gels maximum of […] CBDA, 1200 µg THCA; for decarboxylated sol-gels maximum of 960 µg CBDA, 45 µg THCA).

human nasal mucosa [2] = settings: 2 µL applied, media harvested daily for five days, n = 3
Experimental: Lactate dehydrogenase (LDH) is an oxidoreductase enzyme found in living cells that is released into the cytoplasm upon cell lysis that is under stressor conditions. LDH is detected via a colourimetric cytotoxicity assay that provides a measure of membrane integrity, with high titres of LDH being an indicator of acute cellular damage/toxicity (Lim et al, International Forum of Allergy & Rhinology, 2012, 2(1): p 63-68). […] Acute toxicity was assessed in freshly explanted human nasal tissue.
Human specimens were dissected, connective tissue, debris or blood were removed utilising a 15 blade scalpel and divided into 2-3 mm x 2-3 mm x 1-2 mm sections. […]
LDH was used as the biomarker and analysed using the CytoTox 96® Non-Radioactive cytotoxicity assay kit following manufacturer instructions (Promega, Madison WI). […] After the end of the study, the absorbance of each sample was obtained at 490 nm using FLUOstar Omega Spectrophotometer (BMG Labtech, Offenburg, Germany). The extracellular LDH level was calculated as changes in the LDH levels of tissues treated with a formulation versus tissues treated with PBS. Statistical differences were analysed by one-way ANOVA followed by Dunnet’s multiple comparison test using GraphPad Prism software (v 7.03).

human nasal mucosa [3] = settings: tissue from end of the 5 day study
Experimental: Untreated tissue samples and post-treated tissue samples from the end of the study were preserved from each well for histological evaluation. Each sample was fixed using 4% formaldehyde and stored at 4° C. overnight. On the following day, tissues were dipped in 20% sucrose overnight and embedded in OCT, frozen at -20° C. and cryo-sectioned into slices. Staining was performed with hematoxylin and eosin for 1 minute and stained samples dehydrated in ethanol, defatted in xylene and cover-slipped for histological examination.
Tissues were examined for morphological changes.

Row | SMILES | Deposition of key cannabinoids in µg/g of nasal tissue, Decarboxylated (average of batches D19 & D23) [1] | Deposition of key cannabinoids in µg/g of nasal tissue, Native (average of batches N22 & 23) [1] | Higher tissue level from decarboxylated versus native sol-gels ([1]; decarboxylated versus native extract infused sol-gels) | Extracellular LDH levels versus PBS negative control (human nasal mucosa [2]) | Morphological changes of epithelial and sub epithelial layers of nasal mucosa (human nasal mucosa [3])
1 | C=C(C)[C@@H]1CCC(C)=C[C@H]1c1c(O)cc(CCCCC)cc1O [CBD, cannabidiol] | 3.56 µg/g and 3.56 ± 1.67 µg/g | 3.47 µg/g and 3.47 ± 1.53 µg/g |  |  | 
2 | C=C(C)[C@@H]1CCC(C)=C[C@H]1c1c(O)cc(CCCCC)c(C(=O)O)c1O [CBDA, Cannabidiolic acid] | 10.9 µg/g and 10.9 ± 1.81 µg/g | 3.14 µg/g and 3.14 ± 2.98 µg/g | ca. 3 fold |  | 
3 | CCCCCc1cc(O)c2c(c1)OC(C)(C)[C@@H]1CCC(C)=C[C@@H]21 [THC, delta-9-tetrahydrocannabinol] | 4.19 µg/g and 4.19 ± 2.20 µg/g | 3.54 µg/g and 3.54 ± 1.74 µg/g |  |  | 
4 | CCCCCc1cc2c(c(O)c1C(=O)O)C1C=C(C)CCC1C(C)(C)O2 (centres unmarked) [THCA, Δ^9-Tetrahydrocannabinolic acid] | 11.3 µg/g and 11.3 ± 10.2 µg/g | 5.73 µg/g and 5.73 ± 0.51 µg/g |  |  | 
5 | O=S(=O)([O-])[O-].[Zn+2] [ZnSO4, Zinc sulfate] |  |  |  | significant elevation in LDH levels at day 2 | gross cell and tissue structural damage
